# Ends that are not written are not given here.
# B1: PMP-2: 74 residue rabbit platelet microbicidal protein, variant of PMP-1, analogue of rPF-4 (protein, listed as Oryctolagus cuniculus)
# chain: SDDPKESEGDLHCVCVKTTSLVRPRHITNLELIKAGGHCPTANLIATKKNGRKLCLDLQAALYKKKIIKKLLES
# Key:
# [1] = system: Candida Albicans ATCC 36082; parameters: key: R, resistant; S, sensitive; settings: control strain ATCC 36082; cited from earlier work
# [2] = system: Candida Krusei ATCC 32672; parameters: key: R, resistant; S, sensitive; settings: control strain ATCC 32672; cited from earlier work
# [3] = system: Candida Lusitaniae ATCC 42720; parameters: key: R, resistant; S, sensitive; settings: control strain ATCC 42720; cited from earlier work
# [4] = system: relevant pathogens; assay: microbicidal activity in vitro at pH 5.5 vs 7.2; format: cell-based
# Text: Our preliminary data provide a basis for our central discovery that PMPs have specific, independent determinants responsible for direct antimicrobial activities and potentiation of neutrophil antimicrobial functions. We have shown that these determinants can be isolated, optimized, and utilized to design novel mosaic peptides with selective antimicrobial properties. With a goal of designing novel therapeutics that have potent and selective antimicrobial functions and low toxicity, optimizing the activities of the distinct structural determinants in such peptides is essential.
# Controls contain buffer alone or non-antimicrobial proteins and organism as above. Mixtures are incubated at 37° C. for up to 48 hours, after which aliquots are quantitatively cultured and incubated for 24 to 48 hours. Killing is expressed as decrease in logarithm10 surviving CFU/ml. The limit of sensitivity in microbicidal assays is considered to be a 1 log reduction in viable cells.
# [5] = system: a spectrum of pathogens; assay: antimicrobial spectra in vitro (radial diffusion assay)
# Description: Inocula were 1×10^6 CFU/ml, and incubation conditions were pH 7.2 (RP-1, Sequence No. 3) or pH 5.5 (RP-13, Sequence No. 14), for 24 hours at 37° C.
# We have used the agar radial diffusion assay to determine antimicrobial activities of proteins against microbial pathogens in vitro. One million colony forming units are mixed into 10 ml (i.e., 1×10^5 CFU/ml) of melted 1% agarose (in 10 mM NaHPO4 and cooled to 42° C.) containing minimal nutrient and adjusted to either pH 5.5 or pH 7.2. The agar is solidified in culture dishes, and sample wells are formed. Peptides at various concentrations are dissolved in 10 μl of 0.01% acetic acid buffer (pH 5.5 or 7.2), loaded into individual wells, and incubated at 37° C. for three hours. The plate is then overlayed with 1% agarose containing nutrients and incubated (37° C., for at least 24 hours). Peptides purified by RP-HPLC lacking antimicrobial activity are tested in parallel as controls. Zones of inhibition are measured to quantify antimicrobial activity.
# [6] = system: Staphylococus Aureus ATCC 27217; parameters: key: R, resistant; S, sensitive; settings: control strain ATCC 27217; cited from earlier work
# [7] = system: Streptococcus pneumonia ATCC 35088; parameters: key: R, resistant; S, sensitive; settings: control strain ATCC 35088; cited from earlier work
# [8] = system: Enterococcus Faecalis ATCC 47707; parameters: key: R, resistant; S, sensitive; settings: control strain ATCC 47707; cited from earlier work
# [9] = system: Escherichia coli ATCC 43827; parameters: key: R, resistant; S, sensitive; settings: control strain ATCC 43827; cited from earlier work
# [10] = system: Pseudomonas aeruginosa ATCC 17468; parameters: key: R, resistant; S, sensitive; settings: control strain ATCC 17468; cited from earlier work
# [11] = system: S. aureus strain 6850; assay: flow cytometry of membrane depolarization (DiOC5), permeabilization (PI) and killing, PMP-susceptible strain; format: cell-based
# Text: (§1) Our recent studies have provided new evidence that PMPs differ in mechanisms of action from those of other antimicrobial peptides. We used flow cytometry to study the mechanisms of action of PMPs against S. aureus strain pair 6850 (PMP^S) and JB-1 (PMP^R) in vitro. Strain JB-1 is a menadione auxotroph of parent strain 6850, and has a decreased transcytoplasmic membrane potential (ΔΨ). We used the fluorescent probes dioxycarbocyanine (DiOC5) and propidium iodide (PI) to quantify the effects of PMP-2 and human defensin NP-1 (hNP-1) on ΔΨ and permeability, respectively. […] Menadione reconstituted the PMP^R strain ΔΨ to a level equivalent to the PMP^S strain. This was associated with increased depolarization, permeabilization, and killing of the PMP^R strain due to PMP-2. Therefore, the mechanism of PMP-2 action involves rapid, pH-dependent membrane permeabilization with membrane depolarization. These effects were different from hNP-1, or the cationic antibacterial agents protamine or gentamicin.
# Flow cytometry can also be used to examine kinetics and mechanisms of the action of the peptides on bacterial membrane integrity and energetics. Peptides which differ in activity or specificity for their ability to depolarize and/or permeabilize microbial membranes can also be compared by analysis of membrane depolarization, and permeabilization. DiOC5 is a charged lipophilic dye which partitions into the cytoplasm, and is dependent on intact Δψ for intracellular retention. Organisms prepared as above are labeled in darkness for 30 minutes at about 20° C. in PBS containing 0.05 μM DiOC5. Organisms are resuspended to a concentration of 5×10^8 CFU/ml in K^+MEM containing an individual peptide, and incubated at 37° C. For flow cytometry, organisms are washed, sonicated, counted, and resuspended in K^+MEM buffer. Reductions in mean DiOC5 fluorescence relative to controls are interpreted to represent loss of DiOCs, indicating membrane depolarization. Positive control cells exposed to valinomycin, as well as control cells not exposed to any peptides, are analyzed for DiOC5 fluorescence in parallel.
# Propidium iodide is excluded from cells with normal membrane integrity, but enters cells permealized to molecules ≧2 nm in diameter, and can be stimulated to emit fluorescence at >620 nm. […] Cells are washed in fresh K^+MEM, sonicated, counted, and resuspended in KIMEM buffer containing 20 μM propidium iodide. Control cells exposed to ethanol (positive control for permeabilization) are assessed for propidium iodide uptake in parallel. Increases in mean propidium iodide fluorescence relative to control cells are interpreted to indicate increases in permeability.
# [12] = system: Salmonella typhimurium strain 14028; assay: susceptibility of Salmonella typhimurium strains; format: cell-based; settings: parental strain 14028
# [13] = system: human neutrophils; assay: neutrophil phagocytosis of S. aureus pre-exposed to sub-lethal PMP-2 or serum; format: cell-based; settings: organisms pre-exposed 30 minutes to sub-lethal concentrations, mixed with neutrophils (20:1), 37° C., 2 hours
# Description: (§2) We have initially studied the influence of PMP-2 on in vitro neutrophil phagocytosis and intracellular killing of S. aureus. In our preliminary experiments, a heterologous system was established employing human neutrophils, pooled normal human serum, or crude rabbit PMP-2. Organisms (5×10^7/ml) were pre-exposed to sub-lethal concentrations of serum or PMP-2 for 30 minutes, washed, mixed with neutrophils (20:1), and incubated at 37° C. for 2 hours. We observed a significant increase in phagocytosis of S. aureus when pre-exposed to PMP-2 (mean organisms/neutrophil=11.2), as compared with serum (mean organisms/neutrophil=6.4) or buffer control (mean organisms/neutrophil=3.7; P<0.05 for PMP-2 vs. serum or buffer). To quantify intracellular killing, neutrophils were lysed, and aliquots quantitatively cultured to enumerate surviving S. aureus cells.
# [14] = system: human neutrophils; assay: intracellular killing of S. aureus by neutrophils; format: cell-based; settings: 2 hour time point, neutrophils lysed, quantitative culture
# Description: as §2
# [15] = system: S. aureus strain JB-1; assay: flow cytometry of membrane depolarization (DiOC5), permeabilization (PI) and killing, PMP-resistant strain; format: cell-based; settings: PMP-resistant strain JB-1 compared with PMP-susceptible strain
# Text: as §1, with “This was associated with increased depolarization, permeabilization, and killing of the PMP^R strain due to PMP-2. Therefore, the mechanism of PMP-2 action involves rapid, pH-dependent membrane permeabilization with membrane depolarization. These effects were different from hNP-1, or the cationic antibacterial agents protamine or gentamicin.” left out
# Flow cytometry can also be used to examine kinetics and mechanisms of the action of the peptides on bacterial membrane integrity and energetics. […] For flow cytometry, organisms are washed, sonicated, counted, and resuspended in K^+MEM buffer. Reductions in mean DiOC5 fluorescence relative to controls are interpreted to represent loss of DiOCs, indicating membrane depolarization. Positive control cells exposed to valinomycin, as well as control cells not exposed to any peptides, are analyzed for DiOC5 fluorescence in parallel.
# Propidium iodide is excluded from cells with normal membrane integrity, but enters cells permealized to molecules ≧2 nm in diameter, and can be stimulated to emit fluorescence at >620 nm. […]
# [16] = system: S. aureus; assay: transmission electron microscopy of bacterial cells after peptide exposure; format: cell-based; settings: 10 μg/ml, as little as 15-60 min
# Text: PMPs and tPMPs target and disrupt microbial cytoplasmic membranes. We have investigated morphologic consequences of rabbit PMP-2 and tPMP-1 exposure to bacterial cells, protoplasts, and lipid bilayers in vitro using transmission electron microscopy (TEM) and biophysical techniques. […] Ultrastructural damage precedes detectable bactericidal and bacteriolytic effects. […] It is important to reiterate that PMPs are likely released into the bloodstream in response to infection, such that they presumably accumulate locally at sites of infection to act directly and indirectly in antimicrobial host defense.
# [17] = system: human erythrocytes; format: cell-based
# Text: (§3) The majority of known mammalian antimicrobial peptides have been localized within leukocytes (e.g., defensins), or secreted onto epithelial surfaces such as intestinal lumen or tracheal epithelium (e.g., cryptdins, tracheal antimicrobial peptide). Prohibitive levels of mammalian cell toxicity have been noted with many of these peptides when they have been tested as antimicrobial therapeutics. In contrast, PMPs exert potent in vitro microbicidal activity against a broad spectrum of bacteria and fungi under physiological conditions that exist in the intravascular space. Several PMPs are released from platelets stimulated with agonists associated with infection. Therefore, in response to tissue injury, PMPs are likely released into the mammalian bloodstream at localized sites of infection. […] These potencies compare favorably to potent conventional antimicrobial agents such as aminoglycosides or amphotericin B.
# Four-percent (vol/vol) of washed human erythrocytes (in PBS alone, or in PBS plus 10% heat-inactivated PNHS are incubated with selected peptides ranging in concentration up to 100 times greater than geometric mean MICs. After 24 hours of incubation at 37° C., erythrocyte permeabilization and hemolysis are determined spectrophotometrically. Permeabilization and hemolysis will be compared to buffers alone, and with a triton X-100 control (100% hemolysis).
# [18] = system: vascular endothelial cells; format: cell-based, human
# Text: as §3
# Endothelial cell injury due to peptides is measured using a standard chromium (^51Cr) release assay, described in Filler, S. G., et al., “Candida stimulates endothelial cell eicosanoid production” J Infect Dis. […] After a predetermined incubation period, the medium is aspirated and the amount of ^51Cr released into the medium is measured by scintillation. […]
molecule,measurement,setting,value
"C[C@@H]1[C@H](O)[C@@H](C)/C=C/C=C/C=C/C=C/C=C/C=C/C=C/[C@H](O[C@@H]2O[C@H](C)[C@@H](O)[C@H](N)[C@@H]2O)C[C@@H]2O[C@](O)(C[C@@H](O)C[C@@H](O)[C@H](O)CC[C@@H](O)C[C@@H](O)CC(=O)O[C@H]1C)C[C@H](O)[C@H]2C(=O)O [Amb, amphotericin B]",Antibiotic Resistance Phenotype,[1],S
same,Antibiotic Resistance Phenotype,[2],S
same,Antibiotic Resistance Phenotype,[3],R
H-ATKKNGRKLCLDLQAAL-OH [PMP-246-63],pH dependence of microbicidal activity,[4],significantly amplified at pH 5.5 as compared to pH 7.2
"OC(Cn1cncn1)(Cn1cncn1)c1ccc(F)cc1F [Flu, fluconazole]",Antibiotic Resistance Phenotype,[1],S
same,Antibiotic Resistance Phenotype,[2],R
same,Antibiotic Resistance Phenotype,[3],R
ALYKKFKKKLLKSLKRLG [RP-1],pH optima for microbicidal activity,[5],7.2 pH
same,concentration for microbicidal activity,[5]; in vitro,nanomolar concentration
"CN[C@H](CC(C)C)C(=O)N[C@H]1C(=O)N[C@@H](CC(N)=O)C(=O)N[C@H]2C(=O)N[C@H]3C(=O)N[C@H](C(=O)N[C@H](C(=O)O)c4cc(O)cc(O)c4-c4cc3ccc4O)[C@H](O)c3ccc(c(Cl)c3)Oc3cc2cc(c3O[C@@H]2O[C@H](CO)[C@@H](O)[C@H](O)[C@H]2O[C@H]2C[C@](C)(N)[C@H](O)[C@H](C)O2)Oc2ccc(cc2Cl)[C@H]1O [Van, vancomycin]",Antibiotic Resistance Phenotype,[6],S
same,Antibiotic Resistance Phenotype,[7],S
same,Antibiotic Resistance Phenotype,[8],R
same,Antibiotic Resistance Phenotype,[9],S
same,Antibiotic Resistance Phenotype,[10],R
hNP-1: human neutrophil defensin NP-1,pH dependence of membrane permeabilization,[11]; pH 7.2 vs pH 5.5,greater at pH 7.2 than at pH 5.5
same,"membrane permeabilization, PMP-susceptible vs PMP-resistant strain",[11]; strains 6850 and JB-1 compared,equivalent
same,susceptibility of strain,[12],intrinsically resistant
B1,"phagocytosis of S. aureus, mean organisms/neutrophil",[13],11.2 organisms/neutrophil
same,S. aureus cells surviving intracellular killing,[14],23.8%
same,"depolarization, permeabilization and killing",[11]; PMP-susceptible strain 6850,"rapidly depolarized, permeabilized, and killed"
same,"pH dependence of depolarization, permeabilization and killing",[11]; pH 5.5 vs. pH 7.2,significantly greater at pH 5.5 vs. pH 7.2
same,"depolarization, permeabilization and killing",[15],significantly less
same,susceptibility of strain,[12],as susceptible to PMP-2 as hNP-1 hypersusceptible strains 4252s and 5996s
same,ultrastructural damage (TEM),[16],"Rapid cytoplasmic membrane disruption, followed by cell wall swelling"
same,damage of human erythrocytes,[17],minimal damage
same,damage of vascular endothelial cells,[18],minimal damage
same,pH dependence of microbicidal activity,[4],significantly greater microbicidal activity at pH 5.5 vs. 7.2

# Reference: US9133257B2, “Antimicrobial peptides and derived metapeptides” (priority 1998, dated 2015)
